In the supplement of paper PMC10307832:

Legend:
Experiment in all cases: relative viability (nuclei count vs DMSO), 5 days (fraction); higher = more cells survive
201T = tested on: 201T
How it was run: (§1)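 Relative viability is defined as nuclei in treated wells over nuclei in vehicle wells. Duplicate plates were run and medians reported. Lung cancer cell lines in 1536-well plates were dosed by pin tool one day after seeding, with one drug or with a fixed anchor-drug dose plus five library-drug doses (not always all listed) in √10 steps, and nuclei were counted after 5 days.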

A-427 = tested on: A-427
How it was run: as §1

COR-L23 = tested on: COR-L23
How it was run: as §1

H3255 = tested on: H3255
How it was run: as §1

HCC-44 = tested on: HCC-44
How it was run: as §1

LCLC-103H = tested on: LCLC-103H
How it was run: as §1

LCLC-97TM1 = tested on: LCLC-97TM1
How it was run: as §1

LK-2 = tested on: LK-2
How it was run: as §1

LU99A = tested on: LU99A
How it was run: as §1

NCI-H1563 = tested on: NCI-H1563
How it was run: as §1

NCI-H1793 = tested on: NCI-H1793
How it was run: as §1

NCI-H1944 = tested on: NCI-H1944
How it was run: as §1

NCI-H2347 = tested on: NCI-H2347
How it was run: as §1

NCI-H23 = tested on: NCI-H23
How it was run: as §1

NCI-H460 = tested on: NCI-H460
How it was run: as §1

NCI-H650 = tested on: NCI-H650
How it was run: as §1

NCI-H727 = tested on: NCI-H727
How it was run: as §1

NCI-H838 = tested on: NCI-H838
How it was run: as §1

PC-14 = tested on: PC-14
How it was run: as §1

PC-3 [JPC-3] = tested on: PC-3 [JPC-3]
How it was run: as §1

SW 1573 = tested on: SW 1573
How it was run: as §1

In the case of `C=C1C(=O)O[C@@H](CCCCCCCC)[C@@H]1C(=O)O` [C-75] + C[C@]1(O)C[C@@H](c2nc(-c3ccc4ccc(-c5ccccc5)nc4c3)c3c(N)nccn32)C1 [Linsitinib] (partner 1 µM), the relative viability (201T; first compound 0.08 µM) is reported as 1.01, the relative viability (201T; first compound 0.253 µM) is reported as 1.06 and the relative viability (201T; first compound 0.8 µM) is reported as 1.1. The relative viability (201T; first compound 2.53 µM) was 1.02, the relative viability (201T; first compound 8 µM) was 1.1 and the relative viability (A-427; first compound 0.08 µM) was 1.16. The relative viability (A-427; first compound 0.253 µM) was 1, the relative viability (A-427; first compound 0.8 µM) was 1.06 and the relative viability (A-427; first compound 2.53 µM) was 1.07. The relative viability (A-427; first compound 8 µM) was 1.09, the relative viability (COR-L23; first compound 0.08 µM) was 0.935 and the relative viability (COR-L23; first compound 0.253 µM) was 0.907. For the same molecule, the relative viability (COR-L23; first compound 0.8 µM) was 0.856, the relative viability (COR-L23; first compound 2.53 µM) was 0.632 and the relative viability (COR-L23; first compound 8 µM) was 0.909. The relative viability (H3255; first compound 0.08 µM) was 0.868, the relative viability (H3255; first compound 0.253 µM) was 1.13 and the relative viability (H3255; first compound 0.8 µM) was 1.01. It also gave a relative viability (H3255; first compound 2.53 µM) of 0.895, a relative viability (H3255; first compound 8 µM) of 1.16 and a relative viability (HCC-44; first compound 0.08 µM) of 0.598. For the same molecule, the relative viability (HCC-44; first compound 0.253 µM) was 0.633, the relative viability (HCC-44; first compound 0.8 µM) was 0.618 and the relative viability (HCC-44; first compound 2.53 µM) was 0.453. For the same molecule, the relative viability (HCC-44; first compound 8 µM) was 0.667, the relative viability (LCLC-103H; first compound 0.08 µM) was 0.999 and the relative viability (LCLC-103H; first compound 0.253 µM) was 1.29. It also gave a relative viability (LCLC-103H; first compound 0.8 µM) of 1.08, a relative viability (LCLC-103H; first compound 2.53 µM) of 0.862 and a relative viability (LCLC-103H; first compound 8 µM) of 1.09. For the same molecule, the relative viability (LCLC-97TM1; first compound 0.08 µM) was 0.2, the relative viability (LCLC-97TM1; first compound 0.253 µM) was 0.309 and the relative viability (LCLC-97TM1; first compound 0.8 µM) was 0.177. The relative viability (LCLC-97TM1; first compound 2.53 µM) was 0.105, the relative viability (LCLC-97TM1; first compound 8 µM) was 0.18 and the relative viability (LK-2; first compound 0.08 µM) was 0.416. The relative viability (LK-2; first compound 0.253 µM) was 0.785, the relative viability (LK-2; first compound 0.8 µM) was 0.607 and the relative viability (LK-2; first compound 2.53 µM) was 0.514. For the same molecule, the relative viability (LK-2; first compound 8 µM) was 0.369, the relative viability (LU99A; first compound 0.08 µM) was 0.571 and the relative viability (LU99A; first compound 0.253 µM) was 0.598. It also gave a relative viability (LU99A; first compound 0.8 µM) of 0.528, a relative viability (LU99A; first compound 2.53 µM) of 0.412 and a relative viability (LU99A; first compound 8 µM) of 0.464. It also gave a relative viability (NCI-H1563; first compound 0.08 µM) of 1.24, a relative viability (NCI-H1563; first compound 0.253 µM) of 1.23 and a relative viability (NCI-H1563; first compound 0.8 µM) of 1.14. It also gave a relative viability (NCI-H1563; first compound 2.53 µM) of 1.28, a relative viability (NCI-H1563; first compound 8 µM) of 1.18 and a relative viability (NCI-H1793; first compound 0.08 µM) of 0.775. For the same molecule, the relative viability (NCI-H1793; first compound 0.253 µM) was 1.18, the relative viability (NCI-H1793; first compound 0.8 µM) was 0.698 and the relative viability (NCI-H1793; first compound 2.53 µM) was 0.658. The relative viability (NCI-H1793; first compound 8 µM) was 0.942, the relative viability (NCI-H1944; first compound 0.08 µM) was 1.13 and the relative viability (NCI-H1944; first compound 0.253 µM) was 0.961. It also gave a relative viability (NCI-H1944; first compound 0.8 µM) of 1.26, a relative viability (NCI-H1944; first compound 8 µM) of 1.19 and a relative viability (NCI-H2347; first compound 0.08 µM) of 1.01. For the same molecule, the relative viability (NCI-H2347; first compound 0.253 µM) was 0.959, the relative viability (NCI-H2347; first compound 0.8 µM) was 0.598 and the relative viability (NCI-H2347; first compound 2.53 µM) was 0.88. It also gave a relative viability (NCI-H2347; first compound 8 µM) of 1.07, a relative viability (NCI-H23; first compound 0.08 µM) of 0.541 and a relative viability (NCI-H23; first compound 0.253 µM) of 0.784. For the same molecule, the relative viability (NCI-H23; first compound 0.8 µM) was 0.506, the relative viability (NCI-H23; first compound 2.53 µM) was 0.557 and the relative viability (NCI-H23; first compound 8 µM) was 0.561. It also gave a relative viability (NCI-H460; first compound 0.08 µM) of 0.718, a relative viability (NCI-H460; first compound 0.253 µM) of 0.823 and a relative viability (NCI-H460; first compound 0.8 µM) of 0.72. The relative viability (NCI-H460; first compound 8 µM) was 0.582, the relative viability (NCI-H650; first compound 0.08 µM) was 0.922 and the relative viability (NCI-H650; first compound 0.253 µM) was 0.801. The relative viability (NCI-H650; first compound 0.8 µM) was 0.608, the relative viability (NCI-H650; first compound 2.53 µM) was 0.718 and the relative viability (NCI-H650; first compound 8 µM) was 0.766. The relative viability (NCI-H727; first compound 0.08 µM) was 0.277, the relative viability (NCI-H727; first compound 0.253 µM) was 0.614 and the relative viability (NCI-H727; first compound 0.8 µM) was 0.263. It also gave a relative viability (NCI-H727; first compound 2.53 µM) of 0.183, a relative viability (NCI-H727; first compound 8 µM) of 0.283 and a relative viability (NCI-H838; first compound 0.08 µM) of 0.935. The relative viability (NCI-H838; first compound 0.253 µM) was 0.706, the relative viability (NCI-H838; first compound 0.8 µM) was 1.01 and the relative viability (NCI-H838; first compound 2.53 µM) was 0.943. It also gave a relative viability (NCI-H838; first compound 8 µM) of 0.836, a relative viability (PC-14; first compound 0.08 µM) of 0.956 and a relative viability (PC-14; first compound 0.253 µM) of 0.818. It also gave a relative viability (PC-14; first compound 0.8 µM) of 1.03, a relative viability (PC-14; first compound 2.53 µM) of 0.778 and a relative viability (PC-14; first compound 8 µM) of 0.939. For the same molecule, the relative viability (PC-3 [JPC-3]; first compound 0.08 µM) was 0.939, the relative viability (PC-3 [JPC-3]; first compound 0.253 µM) was 0.933 and the relative viability (PC-3 [JPC-3]; first compound 0.8 µM) was 0.951. It also gave a relative viability (PC-3 [JPC-3]; first compound 2.53 µM) of 1.02, a relative viability (PC-3 [JPC-3]; first compound 8 µM) of 1.09 and a relative viability (SW 1573; first compound 0.08 µM) of 0.819. For the same molecule, the relative viability (SW 1573; first compound 0.253 µM) was 0.962, the relative viability (SW 1573; first compound 0.8 µM) was 0.833 and the relative viability (SW 1573; first compound 2.53 µM) was 0.615. For the same molecule, the relative viability (SW 1573; first compound 8 µM) was 0.705.
